From ChEMBL document CHEMBL1144555, “Chemoenzymatic synthesis and antimicrobial activity evaluation of monoglucosyl diglycerides” (2007)
Values after ≈ are worked out from the molar mass of the structure shown.

Legend:
Format in all cases: functional
[1] = tested on: Mycobacterium tuberculosis; test: Antimicrobial activity against Mycobacterium tuberculosis H37Rv
Bacillus subtilis = test: Antimicrobial activity against Bacillus subtilis ATCC 6633
Staphylococcus aureus [2] = test: Antimicrobial activity against Staphylococcus aureus 52
Kluyveromyces marxianus = test: Antimicrobial activity against Candida pseudotropicalis
Pseudomonas aeruginosa = test: Antimicrobial activity against Pseudomonas aeruginosa ATCC 27753
Staphylococcus aureus [3] = test: Antimicrobial activity against Staphylococcus aureus 87
Enterococcus faecalis = test: Antimicrobial activity against Enterococcus faecalis ATCC 29212
Candida albicans = test: Antimicrobial activity against Candida albicans
Escherichia coli = test: Antimicrobial activity against Escherichia coli ATCC 25922
Staphylococcus aureus [4] = test: Antimicrobial activity against Staphylococcus aureus ATCC 105487
[5] = tested on: Mycobacterium tuberculosis; test: Antimicrobial activity against Mycobacterium tuberculosis H190
Staphylococcus aureus [6] = test: Antimicrobial activity against Staphylococcus aureus ATCC 25923
[7] = tested on: Mycobacterium tuberculosis; test: Antimicrobial activity against Mycobacterium tuberculosis H160
Staphylococcus aureus [8] = test: Antimicrobial activity against Staphylococcus aureus 85

| Structure (SMILES) | MIC [1] | MIC (Bacillus subtilis) | MIC (Staphylococcus aureus [2]) | MIC (Kluyveromyces marxianus) | MIC (Pseudomonas aeruginosa) | MIC (Staphylococcus aureus [3]) | MIC (Enterococcus faecalis) | MIC (Candida albicans) | MIC (Escherichia coli) | MIC (Staphylococcus aureus [4]) | MIC [5] | MIC (Staphylococcus aureus [6]) | MIC [7] | MIC (Staphylococcus aureus [8]) |
| --- | --- | --- | --- | --- | --- | --- | --- | --- | --- | --- | --- | --- | --- | --- |
| CCCCCCCCCCCC(=O)OCC(CO[C@@H]1O[C@H](CO)[C@@H](O)[C@H](O)[C@H]1O)OC(=O)CCCCCCCCCCC (mixture of isomers) | > 128 µg/mL | > 128 µg/mL | > 128 µg/mL | > 128 µg/mL | > 128 µg/mL | > 128 µg/mL | > 128 µg/mL | > 128 µg/mL | > 128 µg/mL | > 128 µg/mL | > 128 µg/mL | > 128 µg/mL | > 128 µg/mL | > 128 µg/mL |
| CCCCCCCCCC(=O)OCC(CO[C@@H]1O[C@H](CO)[C@@H](O)[C@H](O)[C@H]1O)OC(=O)CCCCCCCCC (mixture of isomers) | 128 µg/mL | > 128 µg/mL | > 128 µg/mL | > 128 µg/mL | > 128 µg/mL | 64 µg/mL | > 128 µg/mL | > 128 µg/mL | > 128 µg/mL | > 128 µg/mL | 64 µg/mL | > 128 µg/mL | 64 µg/mL | > 128 µg/mL |
| CCCCC/C=C/C/C=C/CCCCCCCC(=O)OC(COC(=O)CCCCCCC)CO[C@@H]1O[C@H](CO)[C@@H](O)[C@H](O)[C@H]1O (mixture of isomers) | 64 µg/mL | 128 µg/mL | > 128 µg/mL | > 128 µg/mL | > 128 µg/mL | 64 µg/mL | > 128 µg/mL | > 128 µg/mL | > 128 µg/mL | > 128 µg/mL | 64 µg/mL | > 128 µg/mL | 128 µg/mL | > 128 µg/mL |
| Clc1ccc(COC(Cn2ccnc2)c2ccc(Cl)cc2Cl)c(Cl)c1 (centres undefined) [MICONAZOLE] |  |  |  | 0.5 µg/mL (≈ 1.2 µM) |  |  |  | 8 µg/mL (≈ 19.2 µM) |  |  |  |  |  |  |
| CC/C=C/C/C=C/C/C=C/CCCCCCCC(=O)OC(COC(=O)CCCCCCC)CO[C@@H]1O[C@H](CO)[C@@H](O)[C@H](O)[C@H]1O (mixture of isomers) | 64 µg/mL | 128 µg/mL | > 128 µg/mL | > 128 µg/mL | > 128 µg/mL | 64 µg/mL | > 128 µg/mL | > 128 µg/mL | > 128 µg/mL | > 128 µg/mL | 64 µg/mL | > 128 µg/mL | 128 µg/mL | > 128 µg/mL |
| CCCCCCCCCCCCCCCCCC(=O)OCC(CO[C@@H]1O[C@H](CO)[C@@H](O)[C@H](O)[C@H]1O)OC(=O)CCCCCCCCCCCCCCCCC (mixture of isomers) | > 128 µg/mL | > 128 µg/mL | > 128 µg/mL | > 128 µg/mL | > 128 µg/mL | > 128 µg/mL | > 128 µg/mL | > 128 µg/mL | > 128 µg/mL | > 128 µg/mL | > 128 µg/mL | > 128 µg/mL | > 128 µg/mL | > 128 µg/mL |
| CC/C=C/C/C=C/C/C=C/CCCCCCCC(=O)OCC(CO[C@@H]1O[C@H](CO)[C@@H](O)[C@H](O)[C@H]1O)OC(=O)CCCCCCC/C=C/C/C=C/C/C=C/CC (some centres undefined) | > 128 µg/mL | > 128 µg/mL | > 128 µg/mL | > 128 µg/mL | > 128 µg/mL | > 128 µg/mL | > 128 µg/mL | > 128 µg/mL | > 128 µg/mL | > 128 µg/mL | > 128 µg/mL | > 128 µg/mL | > 128 µg/mL | > 128 µg/mL |
| CCCCCCCCCCCCCC(=O)OCC(CO[C@@H]1O[C@H](CO)[C@@H](O)[C@H](O)[C@H]1O)OC(=O)CCCCCCCCCCCCC (some centres undefined) | > 128 µg/mL | > 128 µg/mL | > 128 µg/mL | > 128 µg/mL | > 128 µg/mL | > 128 µg/mL | > 128 µg/mL | > 128 µg/mL | > 128 µg/mL | > 128 µg/mL | > 128 µg/mL | > 128 µg/mL | > 128 µg/mL | > 128 µg/mL |
| CCCCC/C=C/C/C=C/CCCCCCCC(=O)OCC(CO[C@@H]1O[C@H](CO)[C@@H](O)[C@H](O)[C@H]1O)OC(=O)CCCCCCC/C=C/C/C=C/CCCCC (mixture of isomers) | 64 µg/mL | 128 µg/mL | > 128 µg/mL | > 128 µg/mL | > 128 µg/mL | 64 µg/mL | > 128 µg/mL | > 128 µg/mL | > 128 µg/mL | > 128 µg/mL | 128 µg/mL | > 128 µg/mL | 64 µg/mL | > 128 µg/mL |
| CCCCCCCC/C=C/CCCCCCCC(=O)OC(COC(=O)CCCCCCC)CO[C@@H]1O[C@H](CO)[C@@H](O)[C@H](O)[C@H]1O (mixture of isomers) | 64 µg/mL | 128 µg/mL | > 128 µg/mL | > 128 µg/mL | > 128 µg/mL | 64 µg/mL | > 128 µg/mL | > 128 µg/mL | > 128 µg/mL | > 128 µg/mL | 64 µg/mL | > 128 µg/mL | 64 µg/mL | > 128 µg/mL |
| CCCCCCCC(=O)OCC(CO[C@@H]1O[C@H](CO)[C@@H](O)[C@H](O)[C@H]1O)OC(=O)CCCCCCC (mixture of isomers) | 64 µg/mL | 16 µg/mL | > 128 µg/mL | > 128 µg/mL | > 128 µg/mL | 16 µg/mL | 32 µg/mL | > 128 µg/mL | > 128 µg/mL | 32 µg/mL | 64 µg/mL | 16 µg/mL | 64 µg/mL | 16 µg/mL |
| CC/C=C/C/C=C/C/C=C/CCCCCCCC(=O)OC(COC(=O)CCCCCCCCC)CO[C@@H]1O[C@H](CO)[C@@H](O)[C@H](O)[C@H]1O (mixture of isomers) | > 128 µg/mL | > 128 µg/mL | > 128 µg/mL | > 128 µg/mL | > 128 µg/mL | 32 µg/mL | > 128 µg/mL | > 128 µg/mL | > 128 µg/mL | > 128 µg/mL | > 128 µg/mL | > 128 µg/mL | > 128 µg/mL | 64 µg/mL |
| CCCCCCCC/C=C/CCCCCCCC(=O)OC(COC(=O)CCCCCCCCC)CO[C@@H]1O[C@H](CO)[C@@H](O)[C@H](O)[C@H]1O (mixture of isomers) | > 128 µg/mL | 32 µg/mL | > 128 µg/mL | > 128 µg/mL | > 128 µg/mL | > 128 µg/mL | > 128 µg/mL | > 128 µg/mL | > 128 µg/mL | > 128 µg/mL | > 128 µg/mL | 8 µg/mL | > 128 µg/mL | 128 µg/mL |
| O=C(O)c1cn(C2CC2)c2cc(N3CCNCC3)c(F)cc2c1=O [CIPROFLOXACIN] | 0.5 µg/mL (≈ 1.51 µM) | 0.25 µg/mL (≈ 0.754 µM) | > 4 µg/mL |  | 1 µg/mL (≈ 3.02 µM) | 0.5 µg/mL (≈ 1.51 µM) | 1 µg/mL (≈ 3.02 µM) |  |  | 0.25 µg/mL (≈ 0.754 µM) | 0.5 µg/mL (≈ 1.51 µM) | 0.5 µg/mL (≈ 1.51 µM) | 0.5 µg/mL (≈ 1.51 µM) | 0.5 µg/mL (≈ 1.51 µM) |
| CCCCC/C=C/C/C=C/CCCCCCCC(=O)OC(COC(=O)CCCCCCCCC)CO[C@@H]1O[C@H](CO)[C@@H](O)[C@H](O)[C@H]1O (mixture of isomers) | > 128 µg/mL | 128 µg/mL | > 128 µg/mL | > 128 µg/mL | > 128 µg/mL | > 32 µg/mL | 64 µg/mL | > 128 µg/mL | > 128 µg/mL | 32 µg/mL | > 128 µg/mL | > 128 µg/mL | > 128 µg/mL | 32 µg/mL |
| CCCCCCCC/C=C/CCCCCCCC(=O)OCC(CO[C@@H]1O[C@H](CO)[C@@H](O)[C@H](O)[C@H]1O)OC(=O)CCCCCCC/C=C/CCCCCCCC (mixture of isomers) | > 128 µg/mL | > 128 µg/mL | > 128 µg/mL | > 128 µg/mL | > 128 µg/mL | > 128 µg/mL | > 128 µg/mL | > 128 µg/mL | > 128 µg/mL | > 128 µg/mL | > 128 µg/mL | > 128 µg/mL | > 128 µg/mL | > 128 µg/mL |
